The record followed here is US20040049807A1, “Fatty acid desaturase gene and protein for modulating activation of defense signaling pathways in plants” (priority 2003, published 2004).

Data set [1] has as its system PR-1, BGL2 and PR-5 gene transcripts. Kind of data set: PR gene expression after chemical treatment of plants (northern blot). The class given is in vivo, Arabidopsis. The protocol: Chemical treatment of plants. Four-week-old plants were sprayed and sub-irrigated with a solution of SA […] or BTH […] in water as previously described (Shah et al. 1997). As controls, plants were similarly treated with water. Leaves were harvested at the indicated times after treatment and quick-frozen in liquid nitrogen. Leaf samples were stored at −80° C.
RNA extraction, northern and dot blot analyses. Large-scale preparation of RNA from Arabidopsis was carried out Small-scale extraction of RNA from one or two leaves was performed in the TRIzol reagent (GIBCO-BRL, Gaithersburg, Md.) following manufacturer's instructions. Northern blot analysis and synthesis of random primed probes for PR-i, BGL2 and PR-5 were synthesized as described earlier (Shah et al. 1997).

The test system of a further data set is root growth. Kind of data set: inhibition of root growth. The data set is classed as in vivo, Arabidopsis. The following applies: ssi2 plants.
The test system of another data set is PDF1.2. Nature of the data set: PDF1.2 gene expression (northern blot). The data set is classed as in vivo, Arabidopsis. The protocol:
FIG. 8. Expression of the SSI2 gene. (FIG. 8A) Histochemical staining of GUS activity in the leaves and inflorescence of transgenic plants expressing an SSI2::: GUS reporter gene. […] The control is a stained leaf from a wt plant. (FIG. 8B) Northern blot analysis of SSI2 (Nö), npr1-5, jar1-1 and ssi2 plants treated with water or 50 μM JA. RNA was extracted at 48 hour (h) post treatment and the blot was sequentially probed with SSI2, PDF1.2, and THI2.1. Ethidium bromide-stained rRNA served as a control for gel loading. (FIG. 8C) Northern blot analysis of plants inoculated with spores of Alternaria brassicicola. Mock (M) or fungal (A) inoculations were carried out as described previously (12). RNA was extracted at 72 h post inoculation and PDF1.2 gene expression was monitored. (FIG. 8D) Northern blot analysis of SSI2, npr1-5, jar1-1, NahG, etr1-1 and ssi2 plants treated with methanol or 50 μM MeJA. The plants were placed around a beaker containing methanol or MeJA diluted in methanol and covered with plastic wrap. RNA was prepared from leaves harvested at 48 h post treatment and analyzed for PDF1.2 gene expression.
FIG. 10. […] Oleic acid (18:1; 0.5 mM, Sigma) or water was injected into the leaves of SSI2 (Nö), ssi2 or ssi2 nahG plants followed by treatment with 50 μM JA or water. Eight to ten individual plants each of SSI2, ssi2 or ssi2 nahG were analyzed in two independent experiments. RNA was extracted at 48 h post treatment and PDF1.2 gene expression was monitored by northern blot analysis. Ethidium bromide-stained rRNA served as a control for gel loading.
RNA extraction and northern analyses. Small-scale extraction of RNA from one or two leaves was performed in the TRIzol reagent (GIBCO-BRL, Gaithersburg, Md.) following the manufacturer's instructions. Northern blot analysis and synthesis of random primed probes for PR-1, BGL2 and PR-5, PDF1.2 and THI2.1 were synthesized.

Another data set concerns B. cinerea. Nature of the data set: disease resistance to B. cinerea. Particulars: exogenously applied, ssi2 or ssi2 nahG plants. The class given is in vivo, Arabidopsis. The protocol: FIG. 9. Analysis of disease resistance to B. cinerea. Infections with B. cinerea were carried out by wounding the leaves by needle pricks and subsequently spot inoculating spores at the wounded site. The number of pricks made per leaf were based on the leaf size and ranged from three per leaf for SSI2 (Nö) to one per leaf for the ssi2 mutant. Plants were treated with either water or 50 μM JA for 48 h prior to and throughout the infection and the inoculated leaves were photographed at 10 dpi.

Another data set relates to SSI2 gene expression. Nature of the data set: SSI2 gene expression after treatment (northern analysis). The data set is classed as in vivo, Arabidopsis. The following applies: 12, 24 or 48 hours after treating plants.
The test system of a further data set is THI2.1. Kind of data set: THI2.1 gene expression (northern blot). The data set is classed as in vivo, Arabidopsis. The following applies: ssi2 plants. The protocol: FIG. 8. Expression of the SSI2 gene. (FIG. 8A) Histochemical staining of GUS activity in the leaves and inflorescence of transgenic plants expressing an SSI2::: GUS reporter gene. A 1631 bp fragment containing the SSI2 promoter was transcriptionally fused upstream of GUS in pBI121 and three independent transgenic lines were analyzed in both T1 and T2 generations. The control is a stained leaf from a wt plant. (FIG. 8B) Northern blot analysis of SSI2 (Nö), npr1-5, jar1-1 and ssi2 plants treated with water or 50 μM JA. RNA was extracted at 48 hour (h) post treatment and the blot was sequentially probed with SSI2, PDF1.2, and THI2.1. Ethidium bromide-stained rRNA served as a control for gel loading. (FIG. 8C) Northern blot analysis of plants inoculated with spores of Alternaria brassicicola. Mock (M) or fungal (A) inoculations were carried out as described previously (12). RNA was extracted at 72 h post inoculation and PDF1.2 gene expression was monitored. (FIG. 8D) Northern blot analysis of SSI2, npr1-5, jar1-1, NahG, etr1-1 and ssi2 plants treated with methanol or 50 μM MeJA. The plants were placed around a beaker containing methanol or MeJA diluted in methanol and covered with plastic wrap. RNA was prepared from leaves harvested at 48 h post treatment and analyzed for PDF1.2 gene expression.
RNA extraction and northern analyses. […]

Data set [2] is described as follows: in vitro S-ACP desaturase assay.

For `CCCCCCCCCCCCCCCCCC(=O)O` [18:0, stearic acid], the PR-1 gene expression entry in data set [1] (exogenous application, wt plants) was “does not induce”.

Consider `c1ccc2snnc2c1` [BTH, benzothiadiazole], for which, in data set [1] (ssi2 NPR1 nahG plants), the “accumulation of PR-1 transcript” value is recorded as “increased”. The PR-1 expression entry in data set [1] (ssi2 npr1-5 nahG plants) is reported as “not”.

`CC/C=C\C[C@H]1C(=O)CC[C@@H]1CC(=O)O` [JA, jasmonic acid]: in the data set on root growth, the “inhibition of root growth” value was “unaffected”. Besides, the PDF1.2 expression result in the data set on PDF1.2 (ssi2 NPR1, ssi2 npr1-5 or jar1-1 plants, 50 μM, 48 h) was “induced only low to undetectable levels”; in the data set with PDF1.2 (wt and npr1-5 plants, 50 μM, 48 h), “activated PDF1.2 expression effectively”. For the same molecule, the B. cinerea resistance entry in the data set on B. cinerea is reported as “failed to restore”. Moreover, the SSI2 gene expression result with SSI2 gene expression is “did not increase substantially over basal levels”. Besides, the “induced activation of the THI2.1 gene” value in the data set on THI2.1 is “unaffected”.

As for `CC/C=C\CC1C(=O)CCC1CC(=O)OC` (stereo not drawn) [MeJA, methyl JA], the “inhibition of root growth” value with root growth is given as “unaffected”. In the data set on B. cinerea, the B. cinerea resistance entry is “failed to restore”.

On to `O=C(O)c1ccccc1O` [SA, salicylic acid], for which the SSI2 gene expression result with SSI2 gene expression is reported as “did not increase substantially over basal levels”. Moreover, the “accumulation of the PR gene transcripts” value in data set [1] (exogenous application, ssi2 npr1-5 plant) is on record as “did not further increase”.

For `C=C` [ethylene], the PDF1.2 expression result was “not” in the data set with PDF1.2 (10 or 20 parts per million, ssi2 plants) and “induced PDF1.2 expression” in the data set on PDF1.2 (10 or 20 parts per million, wt plants). For the same molecule, the SSI2 gene expression result in the data set with SSI2 gene expression was “did not increase substantially over basal levels”.

As for “mutant protein: ssi2 mutant S-ACP desaturase with leucine 146 changed to phenylalanine, bacterial-expressed (LRERARELPDDYFVVLVGDMITEEAFPTYQTMLNTLDGVRDETGASPTSWAIWTRAWTAE; (26)..(26) Phe residue instead of Leu present at position corresponding to residue 146 of wild type.; listed as Arabidopsis thaliana)”, the “fold less active than wt” value is around 20 fold in data set [2] (16:0 substrate) and “approximately 10 fold” in data set [2] (18:0 substrate). Further, the “18:16 substrate preference ratio and Δ^9 regiospecificity” value in data set [2] (in contrast to the wt) is reported as “unaltered”. In data set [2] (overall summary), the “activity lower than that of the wt enzyme” value is recorded as 10-20 fold.

B1: Wt SSI2: wild-type Arabidopsis SSI2 stearoyl-ACP desaturase (SEQ ID NO:3), expressed in Escherichia coli and purified (protein, listed as Arabidopsis thaliana)
chain: MALKFNPLVASQPYKFPSSTRPPTPSFRSPKFLCLASSSPALSSGPKEVESLKKPFTPPREVHVQVLHSMPPQKIEIFKSMENWAEENLLIHLKDVEKSWQPQDFLPDPASDGFEDQVRELRERARELPDDYFVVLVGDMITEEALPTYQTMLNTLDGVRDETGASPTSWAIWTRAWTAEENRHGDLLNKYLYLSGRVDMRQIEKTIQYLIGSGMDPRTENNPYLGFIYTSFQERATFISHGNTARQAKEHGDIKLAQICGTIAADEKRHETAYTKIVEKLFEIDPDGTVMAFADMMRKKISMPAHLMYDGRNDNLFDNFSSVAQRLGVYTAKDYADILEFLVGRWKIQDLTGLSGEGNKAQDYLCGLAPRIKRLDERAQARAKKGPKIPFSWIHDREVQL
For B1, the specific activity in data set [2] (purified enzyme expressed in Escherichia coli) is on record as around 800 nm/min/mg.
